pEC50: −log10 of the molar value. “And” between values parts separate entries of the source, which are not always exact repeats. Equal entries are not always repeated. “Also recorded” adds a separate entry of the source. Where two headings read alike, the source gives them in different places.
Columns and labels:
JC = assay: In vitro potency against dsDNA viruses: JC; format: cell-based, JC virus
BKV(Dunlop) = BKV(Dunlop) replication in primary human RPTECs (qPCR, RT-qPCR, western blot, immunofluorescence); format: cell-based, BK virus; conditions: for antiviral activity of stored stock compared to freshly prepared drug: tested at 0.31 uM
Procedure: RPTECs were infected with BKV(Dunlop). CMX001 was added before and 2 h postinfection (hpi). Cells and supernatants were harvested 24-72 hpi. BKV replication was examined by TaqMan assays, western blotting, IF staining and viability of RPTECs was examined by WST-1 assay, BrdU incorporation and a TaqMan assay.
Primary human renal proximal tubule epithelial cells (RPTECs), BKV(Dunlop) and all methods as previously described by Bernhoff et al (See Bernhoff et al., Cidofovir inhibits polyomavirus BK replication in human renal tubular cells downstream of viral early gene expression, Am J Transplant 8, 1413-1422 (2008).) Only one exception, quantitative PCR (qPCR) to quantify intracellular or extracellular BKV DNA load was performed with a different primer/probe set also targeting the LTag gene (See Hirsch, et al., J. Prospective study of polyomavirus type BK replication and nephropathy in renal-transplant recipients, N Engl J Med., 347, 488-496 (2002)). Before each experiment, CMX001 was freshly dissolved to 1 mg/ml in methanol/water/ammonium hydroxide (50/50/2). It was further diluted in RPTEC growth medium.
Before each experiment, CMX001 was freshly dissolved to 1 mg/ml in methanol/water/ammonium hydroxide (50/50/2) and further diluted in RPTEC growth medium. About 50% confluent RPTECs were infected with BKV (Dunlop) MOI 1. After 2 h incubation at 37° C., the virus was replaced with fresh medium with or without CMX001 unless otherwise stated.
At 24, 48 and 72 hpi cells were lysed and total RNA extracted using the mirVana PARIS kit (Ambion). RNA samples were treated with DNase turbo (Ambion) to remove residual DNA before the RNA quality was checked by agarose gel electrophoresis and RNA concentration was determined. cDNA was generated from 250 ng RNA per sample using the High Capacity cDNA kit (Applied Biosystems).
To assay extracellular BKV loads, cell culture supernatants were harvested at 24, 48 and 72 hpi and frozen in −70° C. until automatic extraction by a robot (GenoM-48, Qiagen, www.qiagen.com). For intracellular BKV loads, cells were washed, trypsinized and pelleted at 220 g for 10 min, resuspended in G2 buffer from the MagAttract DNA Mini M48 kit (Qiagen) and frozen at −70° C. until extraction with the same robot.
To quantify intracellular or extracellular BKV DNA load, a quantitative PCR (qPCR) with primers and probe targeting the large T-antigen (LT-ag) gene was used. For normalization of intracellular BKV DNA each sample was analyzed in parallel by the qPCR for the gene for aspartoacylase (ACY) to correct for cellular DNA.
Cells were lysed in Cell Disruption buffer (mirVana PARIS kit, Ambion) 24, 48 and 72 hpi and stored at −70° C. until separation with SDS polyacrylamidegel electrophoresis (SDS-PAGE) followed by blotting onto PVDF membrane. Detection of BKV and cellular proteins was performed with polyclonal rabbit antiserum directed against LT-ag (1:2000), VP1 (1:10000), or agno (1:10000) (1, 27) and a monoclonal mouse antibody directed against GAPDH (Ab8245; 1:5000, Abcam, www.abcam.com) followed by anti-rabbit and anti-mouse infrared dye-labeled secondary antibodies (IR Dye 800, Rockland, www.rockland-inc.com and Alexa Fluor 680, Invitrogen, www.invitrogen.com) both 1:5000 before detection with Licor Odyssey Infrared detection system.
Cells were washed in PBS, methanol fixed, blocked with 3% goat-serum in PBS for 30 min, followed by subsequently incubation with primary (37° C.) and secondary (r.t.) antibodies for 30 min. Primary antibodies were monoclonal anti-SV40 LT-ag antibody (Ab-2 Pab416; 1:100, Chemicon, www.chemicon.com) and polyclonal rabbit antiserum directed against agno or VP1 (both 1:1000). The secondary antibodies were anti-mouse conjugated with AlexaFluor 568 and anti-rabbit conjugated with AlexaFluor 488 (1:500; Molecular Probes, www.invitrogen.com). Nuclei were labeled with DRAQ5™ (Biostatus, www.biostatus.com). […]

adenovirus [1] = assay: First fifteen EIND patients: adenovirus; conditions: individual patients
JCV [2] = assay: Established JCV infection of SVG cells, in situ DNA hybridization; format: cell-based, JC virus; conditions: 0.1 μM, four days
HPV 18 = assay: In vitro potency against dsDNA viruses: HPV 18; format: cell-based
vaccinia virus = format: in vivo, human; conditions: detectable while on ST-246 and VIG
CMV [3] = conditions: human, in vivo
CMV [4] = tested on: CMV
BK Virus = conditions: has been reported; read-out: EC50 for BK virus infection; cited from earlier work
adenovirus [5] = assay: Pediatric bone marrow transplant recipient with disseminated adenovirus infection
HCMV(AD169) = assay: In vitro potency against dsDNA viruses: HCMV; format: cell-based
JCV [6] = assay: First fifteen EIND patients: JCV; format: in vivo, human; conditions: one patient

CCCCCCCCCCCCCCCCOCCCOP(=O)(O)CO[C@H](CO)Cn1ccc(N)nc1=O [CMX001, Hexadecyloxypropyl-cidofovir]
Enhanced Activity (JC; CMX001 versus cidofovir EC50): 19
pEC50 (JC; JC polyomavirus): 7.70
BKV-infected cells, immunofluorescence (BKV(Dunlop); 10 μM CMX001, 72 hpi): no BKV-infected cell was observed
IC90 (BKV(Dunlop); Betapolyomavirus hominis, RPTEC, RPTECs, 72 h p.i., viral input subtracted, read-out: IC90, extracellular BKV load): 310 nM
reduction of late protein expression (BKV(Dunlop); CMX001 0.31 μM): about 70%
reduction of BKV load at 96 hpi (BKV(Dunlop); CMX001 0.31 μM for 24 h): approximately 90%
effect on early gene (LT-ag) expression (BKV(Dunlop); CMX001 0.31 μM, 24 hpi): no effect; also recorded: No difference
reduction of late gene expression (BKV(Dunlop); CMX001 0.31 μM, 48 and 72 hpi): 70-90%
reduction of BKV DNA replication (intracellular BKV load) (BKV(Dunlop); CMX001 0.31 μM, 48 hpi): 94% and 90%
reduction of LT-ag mRNA (BKV(Dunlop); CMX001 0.31 μM, 48 hpi): 33%
reduction of agno, western blotting (BKV(Dunlop); CMX001 0.31 μM, 48 hpi): 97%
reduction of late mRNA levels (BKV(Dunlop); CMX001 0.31 μM, 48 hpi): 93%
reduction of BKV DNA replication (intracellular BKV load) (BKV(Dunlop); CMX001 0.31 μM, 72 hpi): 63% and 91%
reduction of LT-ag mRNA (BKV(Dunlop); CMX001 0.31 μM, 72 hpi): 64%
reduction of agno, western blotting (BKV(Dunlop); CMX001 0.31 μM, 72 hpi): 96%
reduction of late mRNA levels (BKV(Dunlop); CMX001 0.31 μM, 72 hpi): 82%
decrease of VP1, western blotting (BKV(Dunlop); CMX001 0.31 μM, 48 h p.i.): 86% and 85%
reduction of LTag staining (BKV(Dunlop); CMX001 0.31 μM, 48 h p.i.): 33%
decrease of VP1, western blotting (BKV(Dunlop); CMX001 0.31 μM, 72 h p.i.): 63% and 96%
reduction of LTag staining (BKV(Dunlop); CMX001 0.31 μM, 72 h p.i.): 30%
decrease in BKV agnoprotein expressing cells (BKV(Dunlop); CMX001 0.31 uM, immunofluorescence 72 h p.i.): approximately 60%
exposure time for IC-90 of BKV progeny loads at 96 hpi (BKV(Dunlop); CMX001 0.31 μM, CDV 40 μg/mL): 24 h
reduction of viral load by pre-treatment (BKV(Dunlop); pre-treatment 23-24 h until one hour before infection, BKV load 72 h p.i.): about 50%
effect of pre-treatment on BKV load (BKV(Dunlop); pre-treatment 4 hours, ending 20 hours before infection): hardly any effect; also recorded: did not inhibit BKV replication
antiviral activity of stored stock compared to freshly prepared drug (BKV(Dunlop); stock 1 mg/ml one week at 4° C.): less than 60%
antiviral activity of stored stock compared to freshly prepared drug (BKV(Dunlop); stock 1 mg/ml one week at −20° C.): approximately 90%
AdV viremia after 1st week (adenovirus [1]): 3.2 Log 10 copies/mL and 5.4 Log 10 copies/mL and 5.0 Log 10 copies/mL and 2.3 Log 10 copies/mL and 7.4 Log 10 copies/mL and 3.4 Log 10 copies/mL and 5.2 Log 10 copies/mL and 2.0 Log 10 copies/mL
AdV viremia after 1st week, change from pre-RX (adenovirus [1]): 4.0 Log 10 copies/mL and 1.0 Log 10 copies/mL and 0.5 Log 10 copies/mL and 1.9 Log 10 copies/mL and 0.7 Log 10 copies/mL and 2.0 Log 10 copies/mL and 1.3 Log 10 copies/mL and 2.5 Log 10 copies/mL
AdV viremia after 2nd week (adenovirus [1]): 2.2 Log 10 copies/mL (2×) and 6.2 Log 10 copies/mL (2×) and 4.1 Log 10 copies/mL and 7.0 Log 10 copies/mL and 3.3 Log 10 copies/mL and 0 Log 10 copies/mL
AdV viremia after 2nd week, change from pre-RX (adenovirus [1]): 5.0 Log 10 copies/mL and 0.2 Log 10 copies/mL and 1.3 Log 10 copies/mL and 2.0 Log 10 copies/mL and 1.1 Log 10 copies/mL and 2.1 Log 10 copies/mL and 0.3 Log 10 copies/mL and 4.5 Log 10 copies/mL
Outcome (adenovirus [1]): Survived; also recorded: Death
elimination of JCV positive cells, normalized to total cell number (JCV [2]): 94%
Enhanced Activity (HPV 18; CMX001 versus cidofovir EC50): 1229
pEC50 (HPV 18; HeLa): 6.38
viable vaccinia in lesions (vaccinia virus): Eliminated
serious adverse events (CMV [3]): No trends were observed in serious adverse events
peak plasma concentration of CMX001 (CMV [4]; person with renal failure, following the first dose): 264 ng/mL
Plasma CMV by PCR (CMV [4]; person, Week 5, 120 mg): 3307
Plasma CMV by PCR (CMV [4]; person, Week 10, 120 mg): 1541
CMV DNA (CMV [4]; person, following 2 weeks of skipped doses): 5,037 copies/mL
CMV plasma DNA (CMV [4]; person, following the first dose (180 mg)): undetectable
CMV DNA (CMV [4]; person, following the start of treatment): undetectable
renal, liver, or hematologic function (CMV [4]; person, more than 16 weeks): No drug-related adverse changes in renal, liver, or hematologic function were observed
pEC50 (BK Virus): 6.85
tolerability (adenovirus [5]; 2-3 mg/kg): well tolerated
peak cidofovir concentrations, fold lower than label for 5 mg/kg Vistide (adenovirus [5]; female, human, plasma, oral): more than 100 fold
decrease in viral load (adenovirus [5]; oral CMX001): 8 log
Enhanced Activity (HCMV(AD169); CMX001 versus cidofovir EC50): 422
pEC50 (HCMV(AD169); Human betaherpesvirus 5, AD169, MRC5, MRC-5): 9.05
JCV in cerebrospinal fluid (CSF) and urine (JCV [6]): became undetectable
